Data: patent publication US10751381B2, “Composition for preventing, relieving or treating colitis, containing complex extracts” (UNIVERSITY-INDUSTRY COOPERATION GROUP OF KYUNG HEE …, priority 2013, dated 2020)

Key:
Type in all cases: in vivo, mice (C57BL/6)
Myeloperoxidase (MPO) [1] = experiment: MPO activity in colon tissue (ELISA kit), TNBS acute colitis, primary experiment; conditions: TNBS-treated mice, 10 mg/kg orally once daily for 3 days, percentage to normal group
Experimental: (§1) Among the experimental groups, one group was set as a normal group, and the experimental animals in other groups were induced with acute colitis by 2,4,6-trinitrobenzenesulfonic acid (TNBS). In detail, after lightly anesthetizing the experimental animals with ether, 0.1 mL of the solution prepared by mixing 2.5 g of 2,4,6-Trinitrobenzene sulfonic acid (NBS) solution with 50% ethanol was injected into the colon through the anus using a syringe having 1 mL volume and an oval point, respectively; the syringe was vertically picked up, and then, maintained for 30 seconds to induce inflammation. Meanwhile, for the normal group, 0.1 mL of normal saline solution was orally administered. […] In this case, as a drug sample, the experiments using the butanol-soluble fraction of the Anemarrhena asphodeloides Bunge extract, mangiferin, and a combined extract were separately performed with time intervals, respectively, and the effects of the drug samples on preventing or treating colitis were reasonably analyzed based on the group supplied with normal saline solution instead of a specific drug in the model animals not treated with TNBS, for each of the experiments.
100 mg of colon tissues were homogenized after adding 200 μL of lysis buffer thereto. […] Subsequently, 100 μL of a stop solution was added to terminate the reaction, and the absorbance was measured at 450 nm using an ELISA reader.

Myeloperoxidase (MPO) [2] = experiment: MPO activity in colon tissue (ELISA kit), TNBS acute colitis, secondary experiment; conditions: TNBS-treated mice, percentage to normal group
Experimental: Among the experimental groups, one group was set as a normal group, and the experimental animals in other groups were induced with acute colitis by 2,4,6-trinitrobenzenesulfonic acid (TNBS). In detail, after lightly anesthetizing the experimental animals with ether, 0.1 mL of the solution prepared by mixing 2.5 g of 2,4,6-Trinitrobenzene sulfonic acid (NBS) solution with 50% ethanol was injected into the colon through the anus using a syringe having 1 mL volume and an oval point, respectively; the syringe was vertically picked up, and then, maintained for 30 seconds to induce inflammation. Meanwhile, for the normal group, 0.1 mL of normal saline solution was orally administered. Subsequently, from the following day, the sample dissolved in normal saline solution was orally administered at a predetermined volume once daily for 3 days. On the following day after completing the sample administration, the experimental animals were suffocated to death with carbon dioxide, and the colon from the appendix to the region immediately before the anus was removed from the colon region. In this case, the experiments, where an ethanol extract of Anemarrhena asphodeloides Bunge, an ethanol extract of Coptis chinensis, a combined extract of the ethanol extract of Anemarrhena asphodeloides Bunge and the ethanol extract of Coptis chinensis, and a combined extract of a water extract of Anemarrhena asphodeloides Bunge and a water extract of Coptis chinensis were used as drug samples (hereinafter, “extract-based experiment”), and the experiments, where a butanol-soluble fraction of the ethanol extract of Anemarrhena asphodeloides Bunge, a butanol-soluble fraction of the ethanol extract of Coptis chinensis, and a combined extract of the butanol-soluble fraction of the ethanol extract of Anemarrhena asphodeloides Bunge and the butanol-soluble fraction of the ethanol extract of Coptis chinensis were used as drug samples (hereinafter, “fraction-based experiment”) were separately performed with time intervals, respectively. Considering the characteristics of animal experiments, it is reasonable that the effects of the drug samples on preventing or treating colitis be evaluated within each of the experiments and that the normal group supplied with saline solution instead of a specific drug sample, for the experimental animals not treated with TNBS, be used as a standard.
100 mg of colon tissues were homogenized after adding 200 μL of lysis buffer thereto. The homogenized colon tissues were centrifuged at 4° C. at a rate of 13000 rpm for 15 minutes, the supernatant therefrom was recovered, and the MPO activity was measured using a mouse MPO assay ELISA kit (Hbt HK210, USA). 100 μL of the supernatant was added into a 96-well plate and reacted at room temperature for 1 hour. Upon completion of the reaction, the plate was emptied by overturning, repeatedly washed three times with 200 μL of washing buffer, added with 100 μL of diluted tracer, and then the reaction was allowed to perform at room temperature for 1 hour. Upon completion of the reaction, the plate was emptied by overturning, and each well of the plate was washed using 200 μL of washing buffer. After repeatedly performing the washing process three times using 200 μL of washing buffer, 100 μL of diluted streptavidin-peroxidase conjugate was added thereto, and the reaction was allowed to perform at room temperature for 1 hour. Upon completion of the reaction, the plate was emptied by overturning, and each well of the plate was washed with 200 μL of washing buffer. After repeatedly washing three times using 200 μL of washing buffer, 100 μL of TMB substrate solution was added thereto, the plate was wrapped with an aluminum foil to block out the light, and the reaction was performed at room temperature for 30 minutes. Subsequently, 100 μL of a stop solution was added to terminate the reaction, and the absorbance was measured at 450 nm using an ELISA reader.

IL-1β = IL-1β expression in colon tissue (ELISA), TNBS acute colitis, primary experiment; conditions: TNBS-treated mice, 10 mg/kg orally once daily for 3 days, percentage to normal group
Experimental: as §1, with “administered. Subsequently, from the following day, the sample dissolved in normal saline solution was orally administered at a predetermined volume once daily for 3 days.” for “administered.”, “experiments. […]” for “experiments.”

IL-6 = IL-6 expression in colon tissue (ELISA), TNBS acute colitis, primary experiment; conditions: TNBS-treated mice, 10 mg/kg orally once daily for 3 days, percentage to normal group
Experimental: as §1, with “administered. Subsequently, from the following day, the sample dissolved in normal saline solution was orally administered at a predetermined volume once daily for 3 days.” for “administered.”, “experiments. […]” for “experiments.”

[3] = test system: model animals with acute colitis induced by TNBS; experiment: Acute colitis induced by TNBS in mice, secondary experiment (extract-based and fraction-based): weight change, colon length, macroscopic score; conditions: TNBS-treated mice, percentage to normal group
Experimental: All the mice were bred under the controlled environmental conditions of 50±10% of humidity at a temperature of 20° C. to 22° C., and the lighting was provided by repeatedly turning on for 12 hours followed by turning off for 12 hours. A feed for a standard experiment (Samyang, Korea) was used as a feed, and ad libitum access to water was allowed. In all experiments, each group consisted of 6 mice. […] Meanwhile, for the normal group, 0.1 mL of normal saline solution was orally administered. Subsequently, from the following day, the sample dissolved in normal saline solution was orally administered at a predetermined volume once daily for 3 days. On the following day after completing the sample administration, the experimental animals were suffocated to death with carbon dioxide, and the colon from the appendix to the region immediately before the anus was removed from the colon region. In this case, the experiments, where an ethanol extract of Anemarrhena asphodeloides Bunge, an ethanol extract of Coptis chinensis, a combined extract of the ethanol extract of Anemarrhena asphodeloides Bunge and the ethanol extract of Coptis chinensis, and a combined extract of a water extract of Anemarrhena asphodeloides Bunge and a water extract of Coptis chinensis were used as drug samples (hereinafter, “extract-based experiment”), and the experiments, where a butanol-soluble fraction of the ethanol extract of Anemarrhena asphodeloides Bunge, a butanol-soluble fraction of the ethanol extract of Coptis chinensis, and a combined extract of the butanol-soluble fraction of the ethanol extract of Anemarrhena asphodeloides Bunge and the butanol-soluble fraction of the ethanol extract of Coptis chinensis were used as drug samples (hereinafter, “fraction-based experiment”) were separately performed with time intervals, respectively. Considering the characteristics of animal experiments, it is reasonable that the effects of the drug samples on preventing or treating colitis be evaluated within each of the experiments and that the normal group supplied with saline solution instead of a specific drug sample, for the experimental animals not treated with TNBS, be used as a standard. The sample administration to the model animals with colitis induced by TNBS was stopped, and on the following day, the weight of the experimental animals was measured were and then compared with their initial weight to calculate the change in the amount of weight. The scores on the removed colons were estimated by observing the appearances and the length of the colons according to the criteria (Hollenbach et al., the criteria on the levels of colon in 2005) listed in Table 3. In this case, as a positive control group, the group administered with Mesalazine® (Sigma) was used. Additionally, a portion of the content in the colon was collected to analyze the intestinal microorganisms, and then stored in a freezer maintained at −80° C. From the tissues of colon, the content in the colon was completely removed and then the tissues of colon were washed with normal saline solution.

[4] = test system: model animals with acute colitis induced by TNBS; experiment: Acute colitis induced by TNBS in mice, primary experiment: weight change, colon appearance score, colon length; conditions: TNBS-treated mice, 10 mg/kg orally once daily for 3 days, percentage to normal group (saline, no TNBS)
Experimental: All the mice were bred under the controlled environmental conditions of 50±10% of humidity at a temperature of 20° C. to 22° C., and the lighting was provided by repeatedly turning on for 12 hours followed by turning off for 12 hours. A feed for a standard experiment (Samyang, Korea) was used as a feed, and ad libitum access to water was allowed. In all experiments, each group consisted of 6 mice. […] Meanwhile, for the normal group, 0.1 mL of normal saline solution was orally administered. Subsequently, from the following day, the sample dissolved in normal saline solution was orally administered at a predetermined volume once daily for 3 days. On the following day after completing the sample administration, the experimental animals were suffocated to death with carbon dioxide, and the colon from the appendix to the region immediately before the anus was removed from the colon region. In this case, as a drug sample, the experiments using the butanol-soluble fraction of the Anemarrhena asphodeloides Bunge extract, mangiferin, and a combined extract were separately performed with time intervals, respectively, and the effects of the drug samples on preventing or treating colitis were reasonably analyzed based on the group supplied with normal saline solution instead of a specific drug in the model animals not treated with TNBS, for each of the experiments. The sample administration to the model animals with colitis induced by TNBS was stopped, and on the following day, the weight of the experimental animals was measured, and the measured weight was compared with the initial weight to calculate the amount of change in weight. The scores about the removed colons were estimated by observing the appearances and the length of the colons according to the following criteria (Hollenbach, et al., the criteria about the colitis level in 2005) as listed in Table 1. In this case, as a positive control group, the group administered with Mesalazine® (Sigma) was used. […]

TNF-α = TNF-α expression in colon tissue (ELISA), TNBS acute colitis, primary experiment; conditions: TNBS-treated mice, 10 mg/kg orally once daily for 3 days, percentage to normal group
Experimental: as §1, with “administered. Subsequently, from the following day, the sample dissolved in normal saline solution was orally administered at a predetermined volume once daily for 3 days.” for “administered.”, “experiments. […]” for “experiments.”

IL-10 = IL-10 expression in colon tissue (ELISA), TNBS acute colitis, primary experiment; conditions: TNBS-treated mice, 10 mg/kg orally once daily for 3 days, percentage to normal group
Experimental: as §1, with “administered. Subsequently, from the following day, the sample dissolved in normal saline solution was orally administered at a predetermined volume once daily for 3 days.” for “administered.”, “experiments. […]” for “experiments.”

[5] = extract-based experiment, 10 mg/kg orally once daily for 3 days
[6] = extract-based experiment, 20 mg/kg orally once daily for 3 days
[7] = extract-based experiment, 50 mg/kg orally once daily for 3 days
[8] = fraction-based experiment, 10 mg/kg orally once daily for 3 days
[9] = fraction-based experiment, 20 mg/kg orally once daily for 3 days
[10] = fraction-based experiment, 50 mg/kg orally once daily for 3 days

Nc1ccc(O)c(C(=O)O)c1 [Mesalazine ®, Mesalazine]
MPO activity (Myeloperoxidase (MPO) [1]): 1111.6% | MPO activity (Myeloperoxidase (MPO) [2]; [5]): 360% | MPO activity (Myeloperoxidase (MPO) [2]; [6]): 360% | MPO activity (Myeloperoxidase (MPO) [2]; [7]): 390% | MPO activity (Myeloperoxidase (MPO) [2]; [8]): 300% | MPO activity (Myeloperoxidase (MPO) [2]; [9]): 300% | MPO activity (Myeloperoxidase (MPO) [2]; [10]): 317% | IL-1β (IL-1β): 618.4% | IL-6 (IL-6): 190.0% | Body weight [3, 5]: 59.46% | Colon length [3, 5]: 89.06% | Macroscopic score [3, 5]: 420% | Body weight [3, 6]: 78.38% | Colon length [3, 6]: 90.63% | Macroscopic score [3, 6]: 420% | Body weight [3, 7]: 75.68% | Colon length [3, 7]: 90.63% | Macroscopic score [3, 7]: 450% | Body weight [3, 8]: 59.46% | Colon length [3, 8]: 90.48% | Macroscopic score [3, 8]: 500% | Body weight [3, 9]: 78.38% | Colon length [3, 9]: 92.06% | Macroscopic score [3, 9]: 500% | Body weight [3, 10]: 75.68% | Colon length [3, 10]: 92.06% | Macroscopic score [3, 10]: 600% | Body weight [4]: 93.2% | Colon length [4]: 89.9% | Macroscopic score [4]: 550.5% | TNF-α (TNF-α): 304.1% | IL-10 (IL-10): 53.1%
